The results in this text go back to patent publication US10624948B2, “Use of cell-permeable peptide inhibitors of the JNK signal transduction pathway for the treatment of various diseases” (Xigen Inflammation Ltd., priority 2013, dated 2020).

For data set [1], the system named is HCT 116 human colon tumor. Briefly: Orthotopic HCT 116 human colon tumors in SCID mice. In kind it is in vivo. Here is the method:
The objective of this study was to determine the effect of XG-102 on the growth of HCT 116 human colon tumor orthotopically xenografted in SCID mice.
For XG-102 administration the required amount of XG-102 was dissolved in the vehicle. The formulation was prepared according to the procedure detailed below. Concentrations were calculated and expressed taking into account test item purity and peptide content (multiplier coefficient was 74.6%). […] Diluted solutions were maintained on ice until use. Unused material was discarded. XG-102 was injected once daily at 0.1 and 1 mg/kg/inj. for a total of fourteen consecutive administrations (Q1D×14). The routes of substance administrations were: injected subcutaneously (SC) at 5 ml/kg/inj., administered per os (PO) to mice by oral gavage via a canula at 5 ml/kg/adm. The injection and administration volumes were adapted, according to the daily individual body weight of mice.
Twenty four to Forty-eight hours before tumor induction, 5 SCID mice were irradiated with a γ-source (1.8 Gy, Co^60, INRA, Dijon, France). Ten millions (10^7) HCT 116 cells suspended in 200 μl of RPMI medium were subcutaneously injected in the right flank of the 5 female SCJD mice. When tumors reached 1000-2000 mm^3, mice were sacrificed. […]
Mice were sacrificed at D26. […] Invasion of liver by tumor nodules was evaluated macroscopically. […]

A short description of data set [2]: Phase I pharmacokinetics, single intravenous infusion. Particulars: human, in vivo. Here is the method: The primary objective of the study was to assess the safety and tolerability of XG-102 following intravenous (iv) infusion of single escalating doses of XG-102 to healthy male volunteers. The secondary objective of the study was to assess the pharmacokinetics of XG-102 following iv infusion of single escalating doses of XG-102 to healthy male volunteers. Doses were administered as a 60 minute iv infusion. For control purposes, placebo iv infusion was administered to control subjects. This was a single-centre, randomized, double blind, placebo controlled, ascending single dose, sequential group study. […] Screening was performed in the 3-week period prior to dosing. Dosing occurred on Day 0 for each subject. […] Data for all subjects were included in the safety analyses; data for all subjects who received XG-102 were included in the pharmacokinetic analyses.

SMILES strings stand for the structures.

Regarding `CC(C)C[C@@H](NC(=O)[C@@H](Cc1ccccc1)NC(=O)[C@H]1CCCN1C(=O)[C@@H](CCC(N)=O)NC(=O)[C@H](NC(=O)[C@H]1CCCN1C(=O)[C@@H](CCCNC(=N)N)NC(=O)[C@@H](CO)NC(=O)[C@@H](CCC(N)=O)NC(=O)[C@H](N)CC(=O)O)C(C)C)C(=O)N[C@H](CC(N)=O)C(=O)N[C@H](CC(C)C)C(=O)N[C@@H](C(=O)N[C@@H](C(=O)N1CCC[C@@H]1C(=O)N[C@H](CCCNC(=N)N)C(=O)N[C@H](CCCCN)C(=O)N1CCC[C@@H]1C(=O)N[C@H](CCCNC(=N)N)C(=O)N1CCC[C@@H]1C(=O)N1CCC[C@@H]1C(=O)N[C@H](CCCNC(=N)N)C(=O)N[C@H](CCCNC(=N)N)C(=O)N[C@H](CCCNC(=N)N)C(=O)N[C@H](CCC(N)=O)C(=O)N[C@H](CCCNC(=N)N)C(=O)N[C@H](CCCNC(=N)N)C(=O)N[C@H](CCCCN)C(=O)N[C@H](CCCCN)C(=O)N[C@H](CCCNC(=N)N)C(=O)NCC(=O)O)[C@H](C)O)[C@H](C)O` [XG-102], in data set [1] (PO 0.1 mg/kg/adm.), the “MBWC at D−2” value is 7.1±4.6%. Moreover, the “lethality after surgery vs vehicle treated group” value in data set [1] (mouse, in vivo) is on record as “did not significantly modify lethality compared to vehicle treated group”. Besides, the AUCextrap is 34.1% in data set [2] (10 ug/kg), 6.7% in data set [2] (40 ug/kg) and 2.9% in data set [2] (80 ug/kg).
